pIC50: −log10 of the molar value. Read-outs that look alike come from different tables or passages of the source.
Experiments:
[1] = system: phosphorylated AKT Ser473 (pAKT S473), mTORC2 activity, PC3 cells; assay: mTOR target engagement assay, immunofluorescent cell-based, pAKT S473 readout (mTORC2 activity); settings: Homo sapiens
Procedure, shortened: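 After blocking, cells were stained overnight at 4 °C with anti-pAKT S473 antibody, then a fluorescent secondary; inhibition was read as reduced fluorescence intensity.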

[2] = system: phosphorylated 4E-BP1 Thr37/46 (p4E-BP1 Thr37/46), mTORC1 activity, PC3 cells; assay: mTOR target engagement assay, immunofluorescent cell-based, p4E-BP1 Thr37/46 readout (mTORC1 activity); settings: Homo sapiens, read-out: p4E-BP1 Thr37/46 IC50
Procedure, shortened: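 Cell-based immunofluorescence in PC3 cells: serially diluted compounds (0.25% DMSO, 5% FBS) applied for ninety minutes at 37° C before fixation and overnight 4° C staining of p4E-BP1 Thr37/46. Untreated DMSO wells set maximal phosphorylation; IC50 obtained by logistic fitting.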

[3] = PC-3, PC3 cells, compound treatment ninety minutes at 37° C.

SMILES	pIC50 [1, 3]	pIC50 [2, 3]	also measured
CC(=O)c1c([C@@H]2C[C@H]3CC[C@@H](C2)N3C(=O)c2nnc[nH]2)nc2c(-c3ccc([C@@H](O)C(F)(F)F)nc3)cnn2c1N [Compound 7.73, 1-(5-((1R,3s,5S)-8-(4H-1,2,4-triazole-3-carbonyl)-8-azabicyclo[3.2.1]octan-3-yl)-7-amino-3-(6-((R)-2,2,2-trifluoro-1-hydroxyethyl)pyridin-3-yl)pyrazolo[1,5-a]pyrimidin-6-yl)ethanone]	–	–	pIC50 ([1]; PC-3, PC3 cells): 6.00 to 7.00; pIC50 ([2]; PC-3, PC3 cells): 6.00 to 7.00
CC(=O)c1c([C@@H]2C[C@H]3CC[C@@H](C2)N3C(=O)c2cc(N)n[nH]2)nc2c(-c3ccc(-c4cnn(C)c4)nc3)cnn2c1N [Compound 1.1.176, 1-(7-amino-5-((1R,3s,5S)-8-(3-amino-1H-pyrazole-5-carbonyl)-8-azabicyclo[3.2.1]octan-3-yl)-3-(6-(1-methyl-1H-pyrazol-4-yl)pyridin-3-yl)pyrazolo[1,5-a]pyrimidin-6-yl)ethanone]	6.00 to 7.00	6.00 to 7.00	–
CC(=O)c1c([C@@H]2C[C@H]3CC[C@@H](C2)N3C(=O)c2nnc[nH]2)nc2c(-c3cnc(-c4ccn(C)n4)c(F)c3)cnn2c1N [Compound 1.1.112, 1-(5-((1R,3s,5S)-8-(4H-1,2,4-triazole-3-carbonyl)-8-azabicyclo[3.2.1]octan-3-yl)-7-amino-3-(5-fluoro-6-(1-methyl-1H-pyrazol-3-yl)pyridin-3-yl)pyrazolo[1,5-a]pyrimidin-6-yl)ethanone]	5.00 to 6.00	5.00 to 6.00	–
CC(=O)c1c([C@@H]2C[C@H]3CC[C@@H](C2)N3C(=O)CO)nc2c(-c3ccc(C#CC4CC4)nc3)cnn2c1N [Compound 8.61, 1-((1R,3s,5S)-3-(6-acetyl-7-amino-3-(6-(cyclopropylethynyl)pyridin-3-yl)pyrazolo[1,5-a]pyrimidin-5-yl)-8-azabicyclo[3.2.1]octan-8-yl)-2-hydroxyethanone]	–	–	pIC50 ([1]; PC-3, PC3 cells): 6.00 to 7.00; pIC50 ([2]; PC-3, PC3 cells): 6.00 to 7.00
CS(=O)(=O)c1c([C@@H]2C[C@H]3CC[C@@H](C2)N3C(=O)c2nnc[nH]2)nc2c(-c3ccc(-c4ccc5c(c4)OCO5)nc3)cnn2c1N [Compound 3.52, ((1R,3s,5S)-3-(7-amino-3-(6-(benzo[d][1,3]dioxol-5-yl)pyridin-3-yl)-6-(methylsulfonyl)pyrazolo[1,5-a]pyrimidin-5-yl)-8-azabicyclo[3.2.1]octan-8-yl)(4H-1,2,4-triazol-3-yl)methanone]	–	–	pIC50 ([1]; PC-3, Table 3-1, PC3 cells): 7.00 to 9.00; pIC50 ([2]; PC-3, Table 3-1, PC3 cells): 7.00 to 9.00
[2H]C([2H])([2H])n1ccc(-c2ccc(-c3cnn4c(N)c(C(C)=O)c([C@@H]5C[C@H]6CC[C@@H](C5)N6C(=O)c5nnc[nH]5)nc34)cn2)n1 [Compound 1.1.82, 1-(5-((1R,3s,5S)-8-(4H-1,2,4-triazole-3-carbonyl)-8-azabicyclo[3.2.1]octan-3-yl)-7-amino-3-(6-(1-methyl-(D3)-1H-pyrazol-3-yl)pyridin-3-yl)pyrazolo[1,5-a]pyrimidin-6-yl)ethanone]	6.00 to 7.00	6.00 to 7.00	–
CC(=O)c1c([C@@H]2C[C@H]3CC[C@@H](C2)N3C(=O)CO)nc2c(-c3ccc(-c4nc[nH]n4)nc3)cnn2c1N [Compound 1.1.102, 1-((1R,3s,5S)-3-(3-(6-(1H-1,2,4-triazol-3-yl)pyridin-3-yl)-6-acetyl-7-aminopyrazolo[1,5-a]pyrimidin-5-yl)-8-azabicyclo[3.2.1]octan-8-yl)-2-hydroxyethanone]	7.00 to 9.00	7.00 to 9.00	–
CC(=O)c1c([C@@H]2C[C@H]3CC[C@@H](C2)N3C(=O)c2cc[nH]c2)nc2c(-c3ccc(C(C)(C)O)nc3)cnn2c1N [Compound 7.16, 1-(5-((1R,3s,5S)-8-(1H-pyrrole-3-carbonyl)-8-azabicyclo[3.2.1]octan-3-yl)-7-amino-3-(6-(2-hydroxypropan-2-yl)pyridin-3-yl)pyrazolo[1,5-a]pyrimidin-6-yl)ethanone]	7.00 to 9.00	6.00 to 7.00	–
CC(=O)c1c([C@@H]2C[C@H]3CC[C@@H](C2)N3C(=O)c2nnc[nH]2)nc2c(-c3ccc(-c4cnn(C)c4)nc3)cnn2c1N [Compound 1.1.149, 1-(5-((1R,3s,5S)-8-(4H-1,2,4-triazole-3-carbonyl)-8-azabicyclo[3.2.1]octan-3-yl)-7-amino-3-(6-(1-methyl-1H-pyrazol-4-yl)pyridin-3-yl)pyrazolo[1,5-a]pyrimidin-6-yl)ethanone]	7.00 to 9.00	7.00 to 9.00	–
CC(=O)c1c([C@@H]2C[C@H]3CC[C@@H](C2)N3C(=O)c2ccn[nH]2)nc2c(-c3ccc(-n4cc(C)cn4)nc3)cnn2c1N [Compound 1.1.131, 1-(5-((1R,3s,5S)-8-(1H-pyrazole-5-carbonyl)-8-azabicyclo[3.2.1]octan-3-yl)-7-amino-3-(6-(4-methyl-1H-pyrazol-1-yl)pyridin-3-yl)pyrazolo[1,5-a]pyrimidin-6-yl)ethanone]	6.00 to 7.00	6.00 to 7.00	–
Nc1c(C2CC2)c([C@@H]2C[C@H]3CC[C@@H](C2)N3C(=O)c2nnc[nH]2)nc2c(-c3ccc(-c4cccc(F)c4)nc3)cnn12 [Compound 4.21, ((1R,3s,5S)-3-(7-amino-6-cyclopropyl-3-(6-(3-fluorophenyl)pyridin-3-yl)pyrazolo[1,5-a]pyrimidin-5-yl)-8-azabicyclo[3.2.1]octan-8-yl)(4H-1,2,4-triazol-3-yl)methanone]	7.00 to 9.00	7.00 to 9.00	–
CC(=O)c1c([C@@H]2C[C@H]3CC[C@@H](C2)N3C(=O)c2nnc[nH]2)nc2c(-c3ccc(-n4cc(C)cn4)nc3)cnn2c1N [Compound 1.1.135, 1-(5-((1R,3s,5S)-8-(4H-1,2,4-triazole-3-carbonyl)-8-azabicyclo[3.2.1]octan-3-yl)-7-amino-3-(6-(4-methyl-1H-pyrazol-1-yl)pyridin-3-yl)pyrazolo[1,5-a]pyrimidin-6-yl)ethanone]	7.00 to 9.00	7.00 to 9.00	–
CC(=O)c1c([C@@H]2C[C@H]3CC[C@@H](C2)N3C(=O)c2nnc[nH]2)nc2c(-c3cnc(C(C)(C)O)c(C)c3)cnn2c1N [Compound 7.24, 1-(5-((1R,3s,5S)-8-(4H-1,2,4-triazole-3-carbonyl)-8-azabicyclo[3.2.1]octan-3-yl)-7-amino-3-(6-(2-hydroxypropan-2-yl)-5-methylpyridin-3-yl)pyrazolo[1,5-a]pyrimidin-6-yl)ethanone]	7.00 to 9.00	7.00 to 9.00	–
[2H]C([2H])([2H])Oc1ccc(-c2ccc(-c3ccn4c(N)c(S(C)(=O)=O)c([C@@H]5C[C@H]6CC[C@@H](C5)N6C(=O)c5nnc[nH]5)nc34)cn2)cc1 [Compound 3.62, ((1R,3s,5S)-3-(7-amino-3-(6-(4-methoxy-(D3)-phenyl)pyridin-3-yl)-6-(methylsulfonyl)pyrazolo[1,5-a]pyrimidin-5-yl)-8-azabicyclo[3.2.1]octan-8-yl)(4H-1,2,4-triazol-3-yl)methanone]	–	–	pIC50 ([1]; PC-3, Table 3-1, PC3 cells): 7.00 to 9.00; pIC50 ([2]; PC-3, Table 3-1, PC3 cells): 7.00 to 9.00
CS(=O)(=O)c1c([C@@H]2C[C@H]3CC[C@@H](C2)N3C(=O)CO)nc2c(-c3ccc(-c4ncc[nH]4)nc3)cnn2c1N [Compound 6.6, 1-((1R,3s,5S)-3-(3-(6-(1H-imidazol-2-yl)pyridin-3-yl)-7-amino-6-(methylsulfonyl)pyrazolo [1,5-a]pyrimidin-5-yl)-8-azabicyclo[3.2.1]octan-8-yl)-2-hydroxyethanone]	–	–	pIC50 ([1]; PC-3, Table 6-1, PC3 cells): 7.00 to 9.00; pIC50 ([2]; PC-3, Table 6-1, PC3 cells): 7.00 to 9.00
Cc1cc(-c2cnn3c(N)c(S(C)(=O)=O)c([C@@H]4C[C@H]5CC[C@@H](C4)N5C(=O)c4nnc[nH]4)nc23)cnc1C(C)(C)O [Compound 3.157, ((1R,3s,5S)-3-(7-amino-3-(6-(2-hydroxypropan-2-yl)-5-methylpyridin-3-yl)-6-(methylsulfonyl)pyrazolo[1,5-a]pyrimidin-5-yl)-8-azabicyclo[3.2.1]octan-8-yl)(4H-1,2,4-triazol-3-yl)methanone]	–	–	pIC50 ([1]; PC-3, Table 3-1, PC3 cells): 7.00 to 9.00; pIC50 ([2]; PC-3, Table 3-1, PC3 cells): 7.00 to 9.00
CC(=O)c1c([C@@H]2C[C@H]3CC[C@@H](C2)N3C(=O)CO)nc2c(-c3ccc(-c4ccccc4)nc3)cnn2c1N [Compound 1.1.5, 1-((1R,3s,5S)-3-(6-acetyl-7-amino-3-(6-phenylpyridin-3-yl)pyrazolo[1,5-a]pyrimidin-5-yl)-8-azabicyclo[3.2.1]octan-8-yl)-2-hydroxyethanone]	7.00 to 9.00	7.00 to 9.00	–
Nc1c(C2CC2)c([C@@H]2C[C@H]3CC[C@@H](C2)N3C(=O)NCCO)nc2c(-c3ccc(-c4ccccc4)nc3)cnn12 [Compound 4.8, (1R,3s,5S)-3-(7-amino-6-cyclopropyl-3-(6-phenylpyridin-3-yl)pyrazolo[1,5-a]pyrimidin-5-yl)-N-(2-hydroxyethyl)-8-azabicyclo[3.2.1]octane-8-carboxamide]	7.00 to 9.00	6.00 to 7.00	–
CC(=O)c1c([C@@H]2C[C@H]3CC[C@@H](C2)N3C(=O)c2nnc[nH]2)nc2c(-c3cnn(C)c3)cnn2c1N [Compound 1.1.151, 1-(5-((1R,3s,5S)-8-(4H-1,2,4-triazole-3-carbonyl)-8-azabicyclo[3.2.1]octan-3-yl)-7-amino-3-(1-methyl-1H-pyrazol-4-yl)pyrazolo[1,5-a]pyrimidin-6-yl)ethanone]	6.00 to 7.00	6.00 to 7.00	–
Nc1c(C2CC2)c([C@@H]2C[C@H]3CC[C@@H](C2)N3C(=O)c2cc[nH]c2)nc2c(-c3ccc(-c4ncc[nH]4)nc3)cnn12 [Compound 6.14, ((1R,3s,5S)-3-(3-(6-(1H-imidazol-2-yl)pyridin-3-yl)-7-amino-6-cyclopropylpyrazolo [1,5-a]pyrimidin-5-yl)-8-azabicyclo[3.2.1]octan-8-yl)(1H-pyrrol-3-yl)methanone]	–	–	pIC50 ([1]; PC-3, Table 6-1, PC3 cells): 7.00 to 9.00; pIC50 ([2]; PC-3, Table 6-1, PC3 cells): 6.00 to 7.00

— patent publication US9227971B2, “Pyrazolo[1,5-a]pyrimidine compounds as mTOR inhibitors” (Merck Sharp & Dohme Corp., priority 2010, dated 2016)
